The source of these data is patent US20130158075A1, “HETEROCYCLIC COMPOUNDS AS DGAT1 INHIBITORS” (PIRAMAL ENTERPRISES LIMITED, priority 2010, published 2013).

Molecules are shown by their SMILES. Structures can show the parent of a compound that is named as a salt.

One test has as its target T1, hDGAT1 (Homo sapiens, UniProt O75907).
T1 construct: made in house; host or cells: Sf9 insect cells (baculovirus); microsomal fraction
T1 sequence (O75907 1-488): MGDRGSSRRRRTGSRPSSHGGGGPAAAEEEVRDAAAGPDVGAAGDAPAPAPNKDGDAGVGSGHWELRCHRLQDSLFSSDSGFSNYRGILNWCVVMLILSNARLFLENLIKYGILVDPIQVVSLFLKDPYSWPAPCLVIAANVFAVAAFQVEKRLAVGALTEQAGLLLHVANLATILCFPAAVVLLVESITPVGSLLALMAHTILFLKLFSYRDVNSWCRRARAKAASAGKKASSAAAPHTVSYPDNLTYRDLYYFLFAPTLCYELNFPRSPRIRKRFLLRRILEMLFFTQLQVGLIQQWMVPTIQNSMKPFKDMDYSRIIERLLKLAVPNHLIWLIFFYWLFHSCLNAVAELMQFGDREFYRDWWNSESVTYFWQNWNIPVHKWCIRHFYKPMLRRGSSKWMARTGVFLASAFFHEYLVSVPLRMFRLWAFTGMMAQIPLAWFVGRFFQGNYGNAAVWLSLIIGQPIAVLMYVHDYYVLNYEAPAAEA
Description: In-vitro DGAT1 assay with hDGAT1 microsomes from Sf9 cells (14C oleoyl CoA, scintillation counting). The class given is biochemical. The settings on record: at 1 μM. In short, it runs like this:
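Microsomes from Sf9 cells infected with hDGAT1 baculovirus (MOI 5, harvested ~66-72 h) were incubated with [14C]oleoyl-CoA and 1,2-dioleoyl-sn-glycerol at 37 °C for 10 min, in duplicate. After alkaline ethanol stop, triglycerides were heptane-extracted and counted by liquid scintillation; percent inhibition was plotted against compound concentration (nM).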
For `O=C(Nc1ccc(-c2cnc(CCNS(=O)(=O)C(F)(F)F)s2)cc1)Nc1ccc(C(F)(F)F)cc1` [Example 526], the “Percentage inhibition of hDGAT1” value was “++ (>50 % Inhibition)”.

With `O=C(Nc1ccc(-c2cnc(CCNS(=O)(=O)C(F)(F)F)s2)cc1)NC1CCCCC1` [Example 528, N-(2-(5-(4-(3-Cyclohexylureido)phenyl)thiazol-2-yl)ethyl)-1,1,1-trifluoro methanesulfonamide], the “Percentage inhibition of hDGAT1” value is recorded as “++ (>50 % Inhibition)”.

Consider `O=C(Nc1ccc(-c2cnc(CNS(=O)(=O)C(F)(F)F)s2)cc1)Nc1ccccc1Cl` [Example 543, N-((5-(4-(3-(2-Chlorophenyl)ureido)phenyl)thiazol-2-yl)methyl)-1,1,1-trifluoro methanesulfonamide], for which the “Percentage inhibition of hDGAT1” value is on record as “++ (>50 % Inhibition)”.

In the case of `O=C(Nc1ccc(-c2cnc(CNS(=O)(=O)C(F)(F)F)s2)cc1)NC1CCCCC1` [Example 548, N-((5-(4-(3-Cyclohexylureido)phenyl)thiazol-2-yl)methyl)-1,1,1-trifluoro methanesulfonamide], the “Percentage inhibition of hDGAT1” value was “++ (>50 % Inhibition)”.

On to `O=C(Nc1ccc(-c2cnc(CNS(=O)(=O)C(F)(F)F)s2)cc1)c1ccccc1Cl` [Example 551], for which the “Percentage inhibition of hDGAT1” value is “+ (20-50% Inhibition)”.

Still in this test, the particulars now being: read-out: Percentage inhibition of hDGAT1.
By inhibition is commonly meant the change of the read-out against control, counted positive when it falls. Take `O=C(Nc1ccc(-c2cnc(C34CC5CC(CC(C(=O)O)(C5)C3)C4)s2)cc1)Nc1c(F)cccc1F` [Example 506, 3-(5-(4-(3-(2,6-Difluorophenyl)ureido)phenyl)thiazol-2-yl)adamantane-1-carboxylic acid]: the inhibition at 1 µM was over 50%.

Turning to `O=C(Nc1ccc(-c2cnc(C34CC5CC(CC(C(=O)O)(C5)C3)C4)s2)cc1)Nc1cc(F)c(F)cc1F` [Example 508, 3-(5-(4-(3-(2,4,5-Trifluorophenyl)ureido)phenyl)thiazol-2-yl)adamantane-1-carboxylic acid], the inhibition at 1 µM is over 50%.

With `O=C(Nc1ccc(-c2cnc(C34CC5CC(CC(C(=O)O)(C5)C3)C4)s2)cc1)Nc1ccc(F)c(F)c1F` [Example 510, 3-(5-(4-(3-(2,3,4-Trifluorophenyl)ureido)phenyl)thiazol-2-yl)adamantane-1-carboxylic acid], the inhibition at 1 µM is over 50%.

Take `O=C(Nc1ccc(-c2cnc(C34CC5CC(CC(C(=O)O)(C5)C3)C4)s2)cc1)Nc1cc(F)cc(F)c1` [Example 512, 3-(5-(4-(3-(3,5-Difluorophenyl)ureido)phenyl)thiazol-2-yl)adamantane-1-carboxylic acid]: the inhibition at 1 µM is over 50%.

On to `O=C(Nc1ccc(-c2cnc(C34CC5CC(CC(C(=O)O)(C5)C3)C4)s2)cc1)Nc1cccc(C(F)(F)F)c1` [Example 514, 3-(5-(4-(3-(3-(Trifluoromethyl)phenyl)ureido)phenyl)thiazol-2-yl)adamantane-1-carboxylic acid], for which the inhibition at 1 µM is over 50%.

Turning to `O=C(Nc1ccccc1)Nc1ccc(-c2cnc(CCNS(=O)(=O)C(F)(F)F)s2)cc1` [Example 527, 1,1,1-Trifluoro-N-(2-(5-(4-(3-phenylureido)phenyl)thiazol-2-yl)ethyl)methane sulfonamide], the inhibition at 1 µM was over 50%.

As for `O=C(Nc1ccc(-c2cnc(CCNS(=O)(=O)C(F)(F)F)s2)cc1)c1ccccc1Cl` [Example 529, 2-Chloro-N-(4-(2-(2-(trifluoromethylsulfonamido)ethyl)thiazol-5-yl)phenyl)benzamide], the inhibition at 1 µM was in the range of 20 to 50%.

Regarding `O=C(Nc1ccc(-c2cnc(CCNS(=O)(=O)C(F)(F)F)s2)cc1)c1nc(-c2ccccc2)oc1C(F)(F)F` [Example 533, 2-Phenyl-5-(trifluoromethyl)-N-(4-(2-(2-(trifluoromethylsulfonamido)ethyl)thiazol-5-yl)phenyl)oxazole-4-carboxamide], the inhibition at 1 µM is over 50%.

Regarding `N#CN=C(Nc1ccc(-c2cnc(CCNS(=O)(=O)C(F)(F)F)s2)cc1)Nc1ccccc1F` [Example 537, N-(2-(5-(4-(2-Cyano-3-(2-fluorophenyl)guanidino)phenyl)thiazol-2-yl)ethyl)-1,1,1-trifluoromethanesulfonamide], the inhibition at 1 µM was over 50%.

For `O=C(Nc1ccc(-c2cnc(CNS(=O)(=O)C(F)(F)F)s2)cc1)Nc1ccccc1F` [Example 544, 1,1,1-Trifluoro-N-((5-(4-(3-(2-fluorophenyl)ureido)phenyl)thiazol-2-yl)methyl)methanesulfonamide], the inhibition at 1 µM was over 50%.

On to `O=C(Nc1ccc(-c2cnc(CNS(=O)(=O)C(F)(F)F)s2)cc1)Nc1cc(F)cc(F)c1` [Example 545, N-((5-(4-(3-(3,5-Difluorophenyl)ureido)phenyl)thiazol-2-yl)methyl)-1,1,1-trifluoromethanesulfonamide], for which the inhibition at 1 µM is over 50%.

For the molecule `O=C(Nc1ccc(-c2cnc(CNS(=O)(=O)C(F)(F)F)s2)cc1)Nc1cc(F)c(F)cc1F` [Example 546, 1,1,1-Trifluoro-N-((5-(4-(3-(2,4,5-trifluorophenyl)ureido)phenyl)thiazol-2-yl)methyl)methanesulfonamide], the inhibition at 1 µM was over 50%.

Turning to `O=C(Nc1ccc(-c2cnc(CNS(=O)(=O)C(F)(F)F)s2)cc1)Nc1c(F)cc(F)cc1F` [Example 547, 1,1,1-Trifluoro-N-((5-(4-(3-(2,4,6-trifluorophenyl)ureido)phenyl)thiazol-2-yl)methyl)methanesulfonamide], the inhibition at 1 µM was over 50%.

Turning to `O=C(Nc1ccc(-c2cnc(CNS(=O)(=O)C(F)(F)F)s2)cc1)Nc1ccc(C(F)(F)F)cc1` [Example 549, 1,1,1-Trifluoro-N-((5-(4-(3-(4-(trifluoromethyl)phenyl)ureido)phenyl)thiazol-2-yl)methyl)methanesulfonamide], the inhibition at 1 µM is over 50%.

`O=C(Nc1ccccc1)Nc1ccc(-c2cnc(CNS(=O)(=O)C(F)(F)F)s2)cc1` [Example 550, 1,1,1-Trifluoro-N-((5-(4-(3-phenylureido)phenyl)thiazol-2-yl)methyl)methane sulfonamide]: the inhibition at 1 µM was over 50%.

On to `O=C(Nc1ccc(-c2cnc(CNS(=O)(=O)C(F)(F)F)s2)cc1)c1ccc(C(F)(F)F)cc1` [Example 552, 4-(Trifluoromethyl)-N-(4-(2-((trifluoromethylsulfonamido)methyl)thiazol-5-yl)phenyl)benzamide], for which the inhibition at 1 µM was over 50%.

With `O=S(=O)(Nc1ccc(-c2cnc(CNS(=O)(=O)C(F)(F)F)s2)cc1)c1ccccc1` [Example 553, N-(4-(2-((Trifluoromethylsulfonamido)methyl)thiazol-5-yl)phenyl)benzene sulfonamide], the inhibition at 1 µM is 20 to 50%.

Take `CC(C)(NS(=O)(=O)C(F)(F)F)c1ncc(-c2ccc(NC(=O)Nc3ccccc3Cl)cc2)s1` [Example 562, N-(2-(5-(4-(3-(2-Chlorophenyl)ureido)phenyl)thiazol-2-yl)propan-2-yl)-1,1,1-trifluoromethanesulfonamide]: the inhibition at 1 µM was over 50%.

As for `CC(C)(NS(=O)(=O)C(F)(F)F)c1ncc(-c2ccc(NC(=O)Nc3ccccc3F)cc2)s1` [Example 563, 1,1,1-Trifluoro-N-(2-(5-(4-(3-(2-fluorophenyl)ureido)phenyl)thiazol-2-yl)propan-2-yl)methanesulfonamide], the inhibition at 1 µM was over 50%.

Consider `CC(C)(NS(=O)(=O)C(F)(F)F)c1ncc(-c2ccc(NC(=O)Nc3cc(F)cc(F)c3)cc2)s1` [Example 564, N-(2-(5-(4-(3-(3,5-Difluorophenyl)ureido)phenyl)thiazol-2-yl)propan-2-yl)-1,1,1-trifluoromethanesulfonamide], for which the inhibition at 1 µM was over 50%.

In the case of `CC(C)(NS(=O)(=O)C(F)(F)F)c1ncc(-c2ccc(NC(=O)Nc3cc(F)c(F)cc3F)cc2)s1` [Example 565, 1,1,1-Trifluoro-N-(2-(5-(4-(3-(2,4,5-trifluorophenyl)ureido)phenyl)thiazol-2-yl)propan-2-yl)methanesulfonamide], the inhibition at 1 µM is over 50%.

For `CC(C)(NS(=O)(=O)C(F)(F)F)c1ncc(-c2ccc(NC(=O)Nc3c(F)cc(F)cc3F)cc2)s1` [Example 566, 1,1,1-Trifluoro-N-(2-(5-(4-(3-(2,4,6-trifluorophenyl)ureido)phenyl)thiazol-2-yl)propan-2-yl)methanesulfonamide], the inhibition at 1 µM fell in the range of 20 to 50%.

In the case of `CC(C)(NS(=O)(=O)C(F)(F)F)c1ncc(-c2ccc(NC(=O)NC3CCCCC3)cc2)s1` [Example 567, N-(2-(5-(4-(3-Cyclohexylureido)phenyl)thiazol-2-yl)propan-2-yl)-1,1,1-trifluoromethanesulfonamide], the inhibition at 1 µM is over 50%.

As for `CC(C)(NS(=O)(=O)C(F)(F)F)c1ncc(-c2ccc(NS(=O)(=O)c3ccccc3)cc2)s1` [Example 568, N-(4-(2-(2-(Trifluoromethylsulfonamido)propan-2-yl)thiazol-5-yl)phenyl)benzenesulfonamide], the inhibition at 1 µM fell in the range of 20 to 50%.

For the molecule `NCCc1ncc(-c2ccc(NC(=O)Nc3cc(F)cc(F)c3)cc2)s1` [Example 574, 1-(4-(2-(2-Aminoethyl)thiazol-5-yl)phenyl)-3-(3,5-difluorophenyl)urea hydrochloride], the inhibition at 1 µM lay within 20 to 50%.

Take `NCCc1ncc(-c2ccc(NC(=O)Nc3cc(F)c(F)cc3F)cc2)s1` [Example 575, 1-(4-(2-(2-Aminoethyl)thiazol-5-yl)phenyl)-3-(2,4,5-trifluorophenyl)urea hydrochloride]: the inhibition at 1 µM is 20 to 50%.
